Data: ChEMBL document CHEMBL5137057, “Small Carbohydrate Derivatives as Potent Antibiofilm Agents” (J Med Chem, 2022)
In brackets after ≈: the same amount, converted by molar mass.

Key:
[1] = target: T1, PA-I galactophilic lectin (Pseudomonas aeruginosa (strain ATCC 15692 / PAO1 / 1C / PRS 101 / LMG12228), UniProt Q05097); test: Binding affinity to Pseudomonas aeruginosa LecA assessed as dissociation constant by isothermal titration calorimetry
T1 sequence (Q05097 whole entry): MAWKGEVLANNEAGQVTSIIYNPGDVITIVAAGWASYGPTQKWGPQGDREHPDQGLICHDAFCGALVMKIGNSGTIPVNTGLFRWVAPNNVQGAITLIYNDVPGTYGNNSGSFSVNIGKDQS

[2] = target: T1, PA-I galactophilic lectin; test: Inhibition of Pseudomonas aeruginosa LecA incubated for 4 to 6 hrs by fluorescence polarization based competitive binding analysis
[3] = target: Type 1 fimbrin D-mannose specific adhesin (Escherichia coli K-12) (UniProt P08191); test: Relative inhibitory potency, ratio of methyl alpha-D-mannose Kd to compound Kd for binding affinity to C-terminal His-tagged truncated Escherichia coli FimH by SPR analysis; settings: K12
[4] = system: Mycolicibacterium smegmatis; test: Antimicrobial activity against Mycobacterium smegmatis MC2 155 assessed as planktonic growth inhibition measured after 48 hrs by microplate reader analysis; assay type: functional
[5] = system: Mycolicibacterium smegmatis; test: Antibiofilm activity against Mycobacterium smegmatis MC2 155 assessed as […] measured after 48 hrs by crystal violet staining based analysis; assay type: functional
Staphylococcus aureus [6] = test: Antibacterial activity against Staphylococcus aureus ATCC 25923 assessed as inhibition of biofilm formation incubated for 24 hrs by crystal violet staining based analysis relative to control; assay type: functional; set-up: scale not given: the % may be the effect or the level left
Serratia marcescens = test: Antibacterial activity against Serratia marcescens ATCC 27117 assessed as inhibition of biofilm formation at 50 ug/ml incubated for 24 hrs by crystal violet staining based analysis relative to control; assay type: functional; set-up: scale not given: the % may be the effect or the level left; settings: dose 50 µg/ml
[7] = target: Type 1 fimbrin D-mannose specific adhesin (Escherichia coli K-12) (UniProt P08191); test: Relative inhibitory potency, ratio of methyl alpha-D-mannose Kd to compound Kd for binding affinity to Escherichia coli FimH by ELISA assay; settings: K12
[8] = target: Type 1 fimbrin D-mannose specific adhesin (Escherichia coli K-12) (UniProt P08191); test: Inhibition of Escherichia coli UTI89 FimH by hemagglutination assay
Escherichia coli = test: Antibiofilm activity against Escherichia coli UTI89; assay type: functional, organism-based
Staphylococcus aureus [9] = test: Potentiation of vancomycin-induced antibacterial activity against methicillin resistant Staphylococcus aureus Mu50 in presence of vancomycin; assay type: functional, organism-based
Pseudomonas aeruginosa [10] = test: Antibacterial activity against Pseudomonas aeruginosa PAO1 NCTC 10332 assessed as inhibition of biofilm formation incubated for 24 hrs by crystal violet staining based analysis; assay type: functional, organism-based; settings: PAO1 NCTC 10332, 24 h
Pseudomonas aeruginosa [11] = test: Antibiofilm activity against Pseudomonas aeruginosa PA14 measured after 48 hrs by confocal laser scanning microscope analysis relative to control; assay type: functional
Staphylococcus aureus [12] = test: Potentiation of vancomycin-induced antibacterial activity against methicillin resistant Staphylococcus aureus Mu50 pretreated with compound followed by vancomycin addition; assay type: functional, organism-based
[13] = Binding affinity to Lactobacillus reuteri Glucosyltransferase assessed as dissociation constant by SPR analysis; set-up: species or system Limosilactobacillus reuteri

Chain of Type 1 fimbrin D-mannose specific adhesin (Escherichia coli K-12) (P08191 whole entry, the tested form may be a part): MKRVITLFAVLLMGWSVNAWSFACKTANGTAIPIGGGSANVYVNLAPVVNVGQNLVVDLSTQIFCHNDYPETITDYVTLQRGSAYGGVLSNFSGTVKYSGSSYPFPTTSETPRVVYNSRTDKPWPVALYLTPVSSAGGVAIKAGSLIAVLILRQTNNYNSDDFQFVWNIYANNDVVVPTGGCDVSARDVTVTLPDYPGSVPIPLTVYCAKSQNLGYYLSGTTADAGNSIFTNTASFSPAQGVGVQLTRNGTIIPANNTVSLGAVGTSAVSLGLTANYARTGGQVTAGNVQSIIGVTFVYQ

O=C(N/N=C/c1ccc(Oc2ccc(/C=N/NC(=O)c3ccc(O[C@@H]4O[C@H](CO)[C@H](O)[C@H](O)[C@H]4O)cc3)cc2)cc1)c1ccc(O[C@@H]2O[C@H](CO)[C@H](O)[C@H](O)[C@H]2O)cc1
Kd [1]: 10.8 µM
IC50 [2]: 5 µM

CO[C@H]1O[C@H](CO)[C@@H](O)[C@H](O)[C@@H]1O
Ratio [3]: 1

OC[C@H]1O[C@@H](Oc2ccccc2)[C@H](O)[C@@H](O)[C@H]1O
IC50 [2]: 13.2 µM

OC[C@H]1O[C@H](O[C@H]2S[C@H](CO)[C@@H](O)[C@H](O)[C@H]2O)[C@H](O)[C@@H](O)[C@@H]1O
MIC [4]: > 500 µM
MBIC [5]: 100 µM

OC[C@H]1O[C@@H](OCc2cn([C@H]3[C@H](O)[C@@H](O)[C@H](n4cc(-c5ccc(-c6cn([C@@H]7O[C@H](CO)[C@@H](n8cc(CO[C@@H]9O[C@H](CO)[C@H](O)[C@H](O)[C@H]9O)nn8)[C@H](O)[C@H]7O)nn6)cc5)nn4)O[C@@H]3CO)nn2)[C@H](O)[C@@H](O)[C@H]1O
Kd [1]: 0.012 µM

CCCCCCC[C@H](CC(=O)NCc1ccccc1)OC(=O)C[C@@H](CCCCCCC)O[C@@H]1O[C@@H](C)[C@H](O)[C@@H](O)[C@H]1O[C@@H]1O[C@@H](C)[C@H](O)[C@@H](O)[C@H]1O
Activity (Staphylococcus aureus [6]): >90%
Activity (Serratia marcescens): >80%

CCOc1c(Nc2ccc(O[C@H]3O[C@H](CO)[C@@H](O)[C@H](O)[C@@H]3O)cc2)c(=O)c1=O
Ratio [7]: 1800

Cc1cc(-c2ccc3ccn(CC(=O)Nc4cccnc4)c(=O)c3c2)ccc1O[C@H]1O[C@H](CO)[C@@H](O)[C@H](O)[C@@H]1O
EC>90 [8]: 1 nM
IC50 (Escherichia coli): 0.018 µM

O[C@H]1[C@@H](O)[C@@H](C2CO2)O[C@@H](Oc2ccccc2)[C@@H]1O (some centres not stated)
IC50 [2]: 64 µM

O[C@H]1[C@@H](O)[C@H](C2CO2)O[C@@H](Oc2ccccc2)[C@@H]1O (single isomer, unassigned)
IC50 [2]: > 3000 µM

Cc1cc(-c2ccc3cc[nH]c(=O)c3c2)ccc1O[C@H]1O[C@H](CO)[C@@H](O)[C@H](O)[C@@H]1O
EC>90 [8]: 31 nM
IC50 (Escherichia coli): 0.13 µM

O=C(NC[C@@H]1O[C@H](CNC(=O)c2ccccc2Cl)[C@@H](O)[C@H]1O)c1ccccc1
EC50 (Staphylococcus aureus [9]): 3.71 µM

CNC(=O)c1cc(C(=O)NC)cc(-c2ccc(O[C@H]3O[C@H](CO)[C@@H](O)[C@H](O)[C@@H]3O)c(C)c2)c1
EC>90 [8]: 16 nM

CCCCCCC[C@H](CC(=O)O)OC(=O)C[C@@H](CCCCCCC)O[C@@H]1O[C@@H](C)[C@H](O)[C@@H](O)[C@H]1O[C@@H]1O[C@@H](C)[C@H](O)[C@@H](O)[C@H]1O
IC50 (Pseudomonas aeruginosa [10]): 75 µg/mL (≈ 115 µM)

C[C@@H]1O[C@H](CNS(=O)(=O)c2cccs2)[C@@H](O)[C@H](O)[C@@H]1O
Activity (Pseudomonas aeruginosa [11]): 80%

CCCCCCC[C@H](CC(=O)N1CCCCC1)OC(=O)C[C@@H](CCCCCCC)O[C@@H]1O[C@@H](C)[C@H](O)[C@@H](O)[C@H]1O[C@@H]1O[C@@H](C)[C@H](O)[C@@H](O)[C@H]1O
Activity (Staphylococcus aureus [6]): >90%
Activity (Serratia marcescens): >80%

[N-]=[N+]=N[C@H]1[C@@H](O[C@H]2O[C@H](CO)[C@@H](O)[C@H](O)[C@H]2O)O[C@H](CO)[C@@H](O)[C@@H]1O
MIC [4]: > 500 µM
MBIC [5]: 500 µM

O=C(NC[C@]1(O)CO[C@H](CN2C(=O)c3ccccc3C2=O)[C@H]1O)c1ccccc1
EC50 (Staphylococcus aureus [12]): 5.01 µM
EC50 (Staphylococcus aureus [9]): 8.29 µM

O=C(NC[C@]1(O)CO[C@H](CNC(=O)c2ccccc2Cl)[C@H]1O)c1ccccc1
EC50 (Staphylococcus aureus [9]): 7.98 µM

C[C@H]1[C@H](Oc2ccc(/C=N/NC(=O)COc3ccccc3Cl)cc2)O[C@H](CO)[C@@H](O)[C@@H]1O
Kd [13]: 400 µM

CNC(=O)c1cc(C(=O)NC)cc(-c2ccc(O[C@H]3O[C@H](CO)[C@@H](O)[C@H](O)[C@@H]3O)c(C(F)(F)F)c2)c1
EC>90 [8]: 8 nM

CNC(=O)c1cc(C(=O)NC)cc(-c2ccc(O[C@H]3O[C@H](CO)[C@@H](O)[C@H](O)[C@@H]3O)cc2)c1
EC>90 [8]: 375 nM

OC[C@H]1O[C@H](O[C@H]2O[C@H](CO)[C@@H](O)[C@H](O)[C@H]2F)[C@H](O)[C@@H](O)[C@@H]1O
MIC [4]: > 500 µM
MBIC [5]: 100 µM
